The assay has as its target HCV NS3 helicase (NS3h) (UniProt A3EZJ3). The experiment in a line: HCV NS3 helicase inhibitor potency, dose response, biochemical, fluorescence polarization, ChemBridge library (AID 743264). To be noted: NS3h binding Cy5-dT15 DNA.

Activity calls are given as the source filed them.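 How the source made its calls: active means mean IC50 for blocking HCV helicase binding to DNA at 50 µM or lower; inactive means mean IC50 above 50 µM.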

Sequence of HCV NS3 helicase (NS3h) (A3EZJ3 1-631): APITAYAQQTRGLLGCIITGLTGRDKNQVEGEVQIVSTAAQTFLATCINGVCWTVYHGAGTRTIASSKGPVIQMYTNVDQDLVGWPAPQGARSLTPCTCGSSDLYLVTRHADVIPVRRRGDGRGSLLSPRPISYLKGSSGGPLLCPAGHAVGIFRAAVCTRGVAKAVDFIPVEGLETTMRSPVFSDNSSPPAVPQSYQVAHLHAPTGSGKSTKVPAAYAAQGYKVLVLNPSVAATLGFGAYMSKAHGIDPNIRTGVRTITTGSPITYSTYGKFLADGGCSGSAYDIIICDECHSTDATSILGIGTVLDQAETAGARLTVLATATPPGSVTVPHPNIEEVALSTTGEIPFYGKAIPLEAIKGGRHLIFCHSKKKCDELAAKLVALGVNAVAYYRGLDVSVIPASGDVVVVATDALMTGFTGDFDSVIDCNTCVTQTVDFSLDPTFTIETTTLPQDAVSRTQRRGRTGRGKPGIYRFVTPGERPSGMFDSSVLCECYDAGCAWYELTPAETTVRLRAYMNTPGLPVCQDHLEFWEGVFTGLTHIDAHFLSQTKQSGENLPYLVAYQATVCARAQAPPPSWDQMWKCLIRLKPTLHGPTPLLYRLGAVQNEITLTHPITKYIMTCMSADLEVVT

Consider `Cc1ccc(N2C(=O)C=CC2=O)c(Br)c1`, for which the IC50 result is “inactive”.
The same measure for `O=C1C=CC(=O)N1c1cccc([N+](=O)[O-])c1`: “inactive”.

The values are drawn from PubChem BioAssay AID743264.
